Results taken from ChEMBL document CHEMBL1125482, “Pharmacokinetics of catechol cephalosporins. The effect of incorporating substituents into the catechol moiety on pharmacokinetics in a marmoset model” (J Med Chem, 1992).
≈ marks a conversion by molar mass, not a printed value.

What was measured:
Canis familiaris = organism: Canis familiaris; details: dog, in vivo, iv
in vivo = details: callithrix, serum, iv
Description: Serum T1/2 in marmosets (IV dose)

[1] = Urinary recovery in marmosets (IV dose); type: ADME, organism-based; details: callithrix, urine, read-out: Recovery
Homo sapiens = organism: Homo sapiens; experiment: Compound was tested for serum protein binding in human blood; type: functional
Pseudomonas aeruginosa [2] = experiment: microbe, parasite or virus in culture
Description: Compound was tested for antimicrobial activity against Pseudomonas aeruginosa PU21 strain

Pseudomonas aeruginosa [3] = experiment: microbe, parasite or virus in culture; remark: listed apart in the source
Description: Compound was tested for antimicrobial activity against Pseudomonas aeruginosa constitutive derepressed type I beta-lactamase producer (18SH) strain

Description for physchem: Dissociation constant (pKa)

AUC (Canis familiaris) [mg/h/L]	half-life (in vivo) [h]	pKa (physchem)	dose excreted [1] [%]	MIC (Pseudomonas aeruginosa [2]) [µg/mL]	MIC (Pseudomonas aeruginosa [3]) [µg/mL]	SMILES	Activity (Homo sapiens) [%]
137.3	2.8	5.6	–	–	–	CCn1cc(C(=O)NCC2=C(C(=O)O)N3C(=O)[C@@H](NC(=O)/C(=N\OC(C)(C)C(=O)O)c4csc(N)n4)[C@H]3SC2)c(=O)c2cc(O)c(O)nc21	–
181.7	2.9	5.5	47.3	–	–	CC(C)(O/N=C(\C(=O)N[C@@H]1C(=O)N2C(C(=O)O)=C(CNC(=O)c3cc(O)c(O)c([N+](=O)[O-])c3)CS[C@H]12)c1csc(N)n1)C(=O)O	97.5
10.9	0.5	7.85	–	–	–	CCN(CC1=C(C(=O)O)N2C(=O)[C@@H](NC(=O)/C(=N\OC(C)(C)C(=O)O)c3csc(N)n3)[C@H]2SC1)C(=O)c1cc(O)c(O)c(F)c1	–
16.4	0.9	7.4	–	–	–	CCN(CC1=C(C(=O)O)N2C(=O)[C@@H](NC(=O)/C(=N\OC(C)(C)C(=O)O)c3csc(N)n3)[C@H]2SC1)C(=O)c1cc(O)c(O)c(Cl)c1	–
243.9	3.95	–	6.9	–	–	CC(C)(O/N=C(\C(=O)N[C@@H]1C(=O)N2C(C(=O)O)=C(CNC(=O)c3cc4ccc(O)c(O)c4oc3=O)CS[C@H]12)c1csc(N)n1)C(=O)O	99.6
7.6	0.6	8.25	–	–	–	CCN(CC1=C(C(=O)O)N2C(=O)[C@@H](NC(=O)/C(=N\OC(C)(C)C(=O)O)c3csc(N)n3)[C@H]2SC1)C(=O)c1cc(O)c(O)cc1F	–
129.8	2.2	6.5	26.9	–	–	CCn1nc(C(=O)NCC2=C(C(=O)O)N3C(=O)[C@@H](NC(=O)/C(=N\OC(C)(C)C(=O)O)c4csc(N)n4)[C@H]3SC2)c(=O)c2cc(O)c(O)cc21	97.8
78	1.6	7.8	–	–	–	CC(C)(O/N=C(\C(=O)N[C@@H]1C(=O)N2C(C(=O)O)=C(CNC(=O)c3cc(O)c(O)cc3F)CS[C@H]12)c1csc(N)n1)C(=O)O	–
645.7	5.7	7	–	–	–	CCn1cc(C(=O)NCC2=C(C(=O)O)N3C(=O)[C@@H](NC(=O)/C(=N\OC(C)(C)C(=O)O)c4csc(N)n4)[C@H]3SC2)c(=O)c2c(Cl)c(O)c(O)cc21	–
1.6	–	–	–	–	–	CC(C)(O/N=C(\C(=O)N[C@@H]1C(=O)N2C(C(=O)O)=C(CNC(=O)Cc3cc(O)c(O)cc3Br)CS[C@H]12)c1csc(N)n1)C(=O)O	–
57.6	1.3	6.9	–	–	–	CCO/N=C(\C(=O)N[C@@H]1C(=O)N2C(C(=O)O)=C(CNC(=O)c3cc(O)c(O)c(Cl)c3)CS[C@H]12)c1csc(N)n1	–
41	1	5.8	–	–	–	CCN(CC1=C(C(=O)O)N2C(=O)[C@@H](NC(=O)/C(=N\OC(C)(C)C(=O)O)c3csc(N)n3)[C@H]2SC1)C(=O)c1cc(O)c(O)c(C#N)c1	–
49.2	1.6	5.8	–	–	–	CCN(CC1=C(C(=O)O)N2C(=O)[C@@H](NC(=O)/C(=N\OC(C)(C)C(=O)O)c3csc(N)n3)[C@H]2SC1)C(=O)c1cc(O)c(O)c([N+](=O)[O-])c1	–
107	1.2	5.5	–	–	–	CCO/N=C(\C(=O)N[C@@H]1C(=O)N2C(C(=O)O)=C(CNC(=O)c3cc(O)c(O)c(C#N)c3)CS[C@H]12)c1csc(N)n1	–
131	2.9	7.65	–	–	–	CC(C)(O/N=C(\C(=O)N[C@@H]1C(=O)N2C(C(=O)O)=C(CNC(=O)c3ccc(O)c(O)c3Cl)CS[C@H]12)c1csc(N)n1)C(=O)O	–
51.9	0.9	8.35	–	0.9 (≈ 1.41 µM)	8.1 (≈ 12.7 µM)	CC(C)(O/N=C(\C(=O)N[C@@H]1C(=O)N2C(C(=O)O)=C(CNC(=O)c3cc(O)c(O)c(O)c3)CS[C@H]12)c1csc(N)n1)C(=O)O	–
25	0.65	7.4	–	–	–	CCO/N=C(\C(=O)N[C@@H]1C(=O)N2C(C(=O)O)=C(CNC(=O)c3cc(O)c(O)c(F)c3)CS[C@H]12)c1csc(N)n1	–
116.8	3.5	7.45	–	–	–	CC(C)(O/N=C(\C(=O)N[C@@H]1C(=O)N2C(C(=O)O)=C(CNC(=O)c3cc(O)c(O)c(F)c3)CS[C@H]12)c1csc(N)n1)C(=O)O	–
61.6	1.5	7.7	–	–	–	CC(C)(O/N=C(\C(=O)N[C@@H]1C(=O)N2C(C(=O)O)=C(/C=C/c3cc(O)c(O)c(Br)c3)CS[C@H]12)c1csc(N)n1)C(=O)O	–
24.2	1	–	–	–	–	CC(C)(O/N=C(\C(=O)N[C@@H]1C(=O)N2C(C(=O)O)=C(CNC(=O)/C=C/c3cc(O)c(O)cc3Br)CS[C@H]12)c1csc(N)n1)C(=O)O	–
67.7	1.7	6.5	–	–	–	CC(C)(O/N=C(\C(=O)N[C@@H]1C(=O)N2C(C(=O)O)=C(COC(=O)c3cc(O)c(O)c(Br)c3)CS[C@H]12)c1csc(N)n1)C(=O)O	–
48.9	0.8	5.5	–	–	–	CCO/N=C(\C(=O)N[C@@H]1C(=O)N2C(C(=O)O)=C(CNC(=O)c3cc(O)c(O)c([N+](=O)[O-])c3)CS[C@H]12)c1csc(N)n1	–
287	4.6	6	–	–	–	CCOC(=O)c1nc2cc(O)c(O)cc2nc1C(=O)NCC1=C(C(=O)O)N2C(=O)[C@@H](NC(=O)/C(=N\OC(C)(C)C(=O)O)c3csc(N)n3)[C@H]2SC1	–
13.4	0.9	8.1	–	–	–	CC(C)(O/N=C(\C(=O)N[C@@H]1C(=O)N2C(C(=O)O)=C(CNC(=O)c3cc(O)c(O)cc3Br)CS[C@H]12)c1csc(N)n1)C(=O)O	–
122.3	2.8	–	–	–	–	CC(C)(O/N=C(\C(=O)N[C@@H]1C(=O)N2C(C(=O)O)=C(CNC(=O)Nc3cc(O)c(O)c(Br)c3)CS[C@H]12)c1csc(N)n1)C(=O)O	–
4.4	0.7	–	–	–	–	CC(C)(O/N=C(\C(=O)N[C@@H]1C(=O)N2C(C(=O)O)=C(CNCc3cc(O)c(O)c(Br)c3)CS[C@H]12)c1csc(N)n1)C(=O)O	–
2	0.35	6.9	–	–	–	CCO/N=C(\C(=O)N[C@@H]1C(=O)N2C(C(=O)O)=C(CNC(=O)c3cc(O)c(O)cc3Br)CS[C@H]12)c1csc(N)n1	–
54.5	1.4	6.9	–	–	–	CCO/N=C(\C(=O)N[C@@H]1C(=O)N2C(C(=O)O)=C(CNC(=O)c3cc(Cl)c(O)c(O)c3Cl)CS[C@H]12)c1csc(N)n1	–
46.7	0.5	–	–	–	–	CO/N=C(\C(=O)N[C@@H]1C(=O)N2C(C(=O)O)=C(COC(C)=O)CS[C@H]12)c1csc(N)n1 [CEFOTAXIME]	–
